Experimental data as given in patent publication US20260083703A1, “INDOLINE DERIVATIVES AS SEROTONERGIC AGENTS USEFUL FOR THE TREATMENT OF DISORDERS RELATED THERETO” (MINDSET PHARMA INC., priority 2022, published 2026).
Where “and” joins values, the source holds several entries; their conditions need not be identical. Equal values may be shown once.

Experiments:
[1] = molecular target: T1, human 5-HT2A (h5-HT2A) receptor (Homo sapiens, UniProt P28223); assay: FLIPR assay, human 5-HT2A, agonist mode; format: cell-based
T1 construct: expressed in transfected cells; grown under G418 and hygromycin B selection
Method: I. Assessment of the Effect of Exemplary Compounds of Formula I Targeting on Human 5-HT2A (h5-HT2A) Receptor Under Agonist Mode:
I.c. Experimental Methods and Procedures: • 1. Cells were cultured in cell culture medium (DMEM containing 10% FBS, 1×penicillin-streptomycin 300 μg/ml G418 and 100 μg/ml hygromycin B) at 37° C., 5% (v/v) CO2. • 2. One day before the assays, the cells were detached using TrypLE™ Express and cells were counted using cell counter. Only cells with >85% viability were used for the assay. • 3. 20000 cells/well were seeded in 30 μl/well culture medium to a 384-well cell plate and cells were incubated overnight at 37° C., 5% (v/v) CO2. • 4. On the assay day, 2×dye solution was prepared following the manual of the FLIPR® Calcium 6 Assay Kit: i. The dye was diluted with assay buffer (20 mM HEPES in 1×HBSS, PH7.4); ii. Probenecid was added to the final concentration of 5 mM; iii. Vortex vigorously for 1-2 minutes. • 5. Medium was removed from cell plate by flicking the cell plate on towel papers. • 6. 10 μl of assay buffer and 10 μl of 2×dye solution was added to each well of the cell plate. • 7. The cell plate was placed on plate shaker, the plate was agitated at 600 rpm for 2 minutes. The plate was incubated at 37° C. for 2 hours followed by additional 15-minute incubation at 25° C. • 8. 3×compound in assay buffer was prepared: a. Reference compounds were diluted to required concentration with DMSO. The compounds were added to a 384-well compound plate; b. Serial dilutions were performed; c. 10 mM test compounds were added to the compound plate, and 3-fold serial dilutions were performed. d. Transfer 60 nl/well of compounds from source plate to a 384-well compound plate (Corning, 3657) by using an Echo; e. Add 20 μl/well assay buffer to the compound plate; f. Mix the plate on plate shaker for 2 mins; • 9. The cell plate, compound plate and tips were put into FLIPR, 10 μl of 3× compound was transferred to the cell plate per well with FLIPR.
• i. The normalized fluorescence reading (RFU) was calculated as shown below, where Fmax and Fmin stand for maximum and minimum of calcium signal during defined time window: RFU=Fmax−Fmin. • ii. Calculate the percentage activation using following equation:
[formula] • Iii. Calculate EC50 by fitting % activation against log of compound concentrations with Hill equation using XLfit.

Male, C57BL/6J mice = assay: Mouse head twitch; format: in vivo
Method: The effect of different doses of representative compounds of Formula I are evaluated on head-twitch response (HTR) and other behavioural responses as behavior-based models of psychedelic activity.
Male, C57BL/6J mice (body weight range 20-30 g) were dosed with the appropriate dose of test article, and following a 1-minute pre-treatment time, placed in individual observation chambers. Animals were visually assessed for the incidence head twitches continuously over a 1 hr period. Head twitches were defined as a rapid jerk of the head which was not elicited by an external tactile stimulus (Come and Pickering, Psychopharmacologia, 1967, 11(1): 65-78). Each head twitch was individually counted by a trained observer, and the data expressed as the mean±SEM of 6-10 mice per group. Mice were used in a single experiment only.

[2] = Liver microsomes stability, rat; settings: for CLint scaled at 2 μM / half-life at 2 μM / microsomal CLint at 2 μM: rat liver microsomes
[3] = Liver microsomes stability, human
[4] = Liver microsomes stability, mouse; settings: for CLint scaled at 2 μM / half-life at 2 μM / microsomal CLint at 2 μM: male, microsomes
[5] = human, pooled human liver microsomes

T1 sequence (P28223 whole entry): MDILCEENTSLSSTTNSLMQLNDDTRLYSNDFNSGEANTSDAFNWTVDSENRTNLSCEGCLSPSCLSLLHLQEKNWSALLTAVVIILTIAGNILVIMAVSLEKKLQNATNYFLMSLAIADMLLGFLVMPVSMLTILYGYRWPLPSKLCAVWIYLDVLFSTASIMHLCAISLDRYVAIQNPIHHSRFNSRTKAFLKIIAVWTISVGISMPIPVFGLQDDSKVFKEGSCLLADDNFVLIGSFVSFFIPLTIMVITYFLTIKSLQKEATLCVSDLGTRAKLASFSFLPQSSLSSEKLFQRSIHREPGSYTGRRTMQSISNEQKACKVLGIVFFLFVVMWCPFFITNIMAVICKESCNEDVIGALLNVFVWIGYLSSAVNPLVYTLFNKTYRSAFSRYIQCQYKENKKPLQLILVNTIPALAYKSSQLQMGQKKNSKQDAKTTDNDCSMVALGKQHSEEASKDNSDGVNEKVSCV

| SMILES | EC50 [1] | 5-HT2A (FLIPR) RFU@10 μM [1] | Predicted hepatic CL [2] [mL/min/kg] | Remaining Percentage ([2]; With NADPH, 0 min) [%] | Remaining Percentage ([2]; With NADPH, 30 min) [%] | Remaining Percentage ([2]; With NADPH, 60 min) [%] | Remaining Percentage ([2]; Without NADPH, 0 min) [%] | Remaining Percentage ([2]; Without NADPH, 30 min) [%] | Remaining Percentage ([2]; Without NADPH, 60 min) [%] | CLint scaled at 2 μM [2] [mL/min/kg] | half-life at 2 μM [2] [min] | microsomal CLint at 2 μM [2] [µL/min/mg] | Predicted hepatic CL ([3]; human) [mL/min/kg] | Remaining Percentage ([3]; human, With NADPH, 0 min) [%] | Remaining Percentage ([3]; human, With NADPH, 30 min) [%] | Remaining Percentage ([3]; human, With NADPH, 60 min) [%] | Remaining Percentage ([3]; human, Without NADPH, 0 min) [%] | Remaining Percentage ([3]; human, Without NADPH, 30 min) [%] | Remaining Percentage ([3]; human, Without NADPH, 60 min) [%] | Predicted hepatic CL [4] [mL/min/kg] | other results |
| --- | --- | --- | --- | --- | --- | --- | --- | --- | --- | --- | --- | --- | --- | --- | --- | --- | --- | --- | --- | --- | --- |
| COc1ccc2c(c1)C(C[C@H]1CCCN1C)CN2 (stereo partly drawn) [(R)-I-54] | 17 nM and 25 nM | 993 RFU and 990 RFU | 49.19 | 100.00 | 2.28 | 0.48 | 100.00 | 103.93 | 97.75 | 452 | 5.5 | 252 | 13.52 | 100.00 | 66.49 | 39.38 | 100.00 | 116.22 | 93.51 | 70.39 | head twitch response (mean head twitches over 1 hr) (Male, C57BL/6J mice; 1 mg/kg SC): 0.7; head twitch response (mean head twitches over 1 hr) (Male, C57BL/6J mice; 3 mg/kg SC): 0.2; head twitch response (mean head twitches over 1 hr) (Male, C57BL/6J mice; 10 mg/kg SC): 1.2; head twitch response (mean head twitches over 1 hr) (Male, C57BL/6J mice; 30 mg/kg SC): 1.8; head twitch response (mean head twitches over 1 hr) (Male, C57BL/6J mice; 60 mg/kg SC): 0.8; dose of peak head twitch response (Male, C57BL/6J mice; SC): 30 mg/kg; head twitch response over the dose range tested (Male, C57BL/6J mice; SC, psilocybin 0.1-10, 5-MeO DMT 1-30, (R)-I-54 1-60 mg/kg): only a modest head twitch response; CLint scaled at 2 μM [3, 5]: 39 mL/min/kg; half-life at 2 μM [3, 5]: 44.6 min; microsomal CLint at 2 μM [3, 5]: 31.1 µL/min/mg; Remaining Percentage ([4]; With NADPH, 0 min): 100.00%; Remaining Percentage ([4]; With NADPH, 30 min): 34.74%; Remaining Percentage ([4]; With NADPH, 60 min): 10.91%; Remaining Percentage ([4]; Without NADPH, 0 min): 100.00%; Remaining Percentage ([4]; Without NADPH, 30 min): 98.80%; Remaining Percentage ([4]; Without NADPH, 60 min): 91.62%; CLint scaled at 2 μM [4]: 323 mL/min/kg; half-life at 2 μM [4]: 18.8 min; microsomal CLint at 2 μM [4]: 73.8 µL/min/mg |
| COc1ccc2c(c1)C(C[C@H]1CCCN1)CN2 (stereo partly drawn) [(R)-I-165, 5-Methoxy-3-(((R)-pyrrolidin-2-yl)methyl)indoline] | 57 nM | 1,318 RFU | 31.82 | 100.00 | 53.50 | 28.43 | 100.00 | 106.00 | 119.73 | 75.1 | 33.1 | 41.9 | 0.00 | 100.00 | 111.72 | 114.92 | 100.00 | 99.07 | 85.51 | 37.78 | T1/2 ([3]; human liver microsomes, 2 μM): ∞; Remaining Percentage ([4]; With NADPH, 0 min): 100.00%; Remaining Percentage ([4]; With NADPH, 30 min): 90.44%; Remaining Percentage ([4]; With NADPH, 60 min): 63.99%; Remaining Percentage ([4]; Without NADPH, 0 min): 100.00%; Remaining Percentage ([4]; Without NADPH, 30 min): 100.70%; Remaining Percentage ([4]; Without NADPH, 60 min): 117.77%; CLint scaled at 2 μM [4]: 65.1 mL/min/kg; half-life at 2 μM [4]: 93.1 min; microsomal CLint at 2 μM [4]: 14.9 µL/min/mg |
